Experimental data as given in BindingDB's records for PubMed 8863838 (Upr Centre, 1996).

Key:
[1] = molecular target: Metabotropic glutamate receptor 4 (Rattus norvegicus, UniProt P31423)
[2] = molecular target: Metabotropic glutamate receptor 2 (Homo sapiens, UniProt Q14416)
Chain of Metabotropic glutamate receptor 2 (Q14416 whole entry): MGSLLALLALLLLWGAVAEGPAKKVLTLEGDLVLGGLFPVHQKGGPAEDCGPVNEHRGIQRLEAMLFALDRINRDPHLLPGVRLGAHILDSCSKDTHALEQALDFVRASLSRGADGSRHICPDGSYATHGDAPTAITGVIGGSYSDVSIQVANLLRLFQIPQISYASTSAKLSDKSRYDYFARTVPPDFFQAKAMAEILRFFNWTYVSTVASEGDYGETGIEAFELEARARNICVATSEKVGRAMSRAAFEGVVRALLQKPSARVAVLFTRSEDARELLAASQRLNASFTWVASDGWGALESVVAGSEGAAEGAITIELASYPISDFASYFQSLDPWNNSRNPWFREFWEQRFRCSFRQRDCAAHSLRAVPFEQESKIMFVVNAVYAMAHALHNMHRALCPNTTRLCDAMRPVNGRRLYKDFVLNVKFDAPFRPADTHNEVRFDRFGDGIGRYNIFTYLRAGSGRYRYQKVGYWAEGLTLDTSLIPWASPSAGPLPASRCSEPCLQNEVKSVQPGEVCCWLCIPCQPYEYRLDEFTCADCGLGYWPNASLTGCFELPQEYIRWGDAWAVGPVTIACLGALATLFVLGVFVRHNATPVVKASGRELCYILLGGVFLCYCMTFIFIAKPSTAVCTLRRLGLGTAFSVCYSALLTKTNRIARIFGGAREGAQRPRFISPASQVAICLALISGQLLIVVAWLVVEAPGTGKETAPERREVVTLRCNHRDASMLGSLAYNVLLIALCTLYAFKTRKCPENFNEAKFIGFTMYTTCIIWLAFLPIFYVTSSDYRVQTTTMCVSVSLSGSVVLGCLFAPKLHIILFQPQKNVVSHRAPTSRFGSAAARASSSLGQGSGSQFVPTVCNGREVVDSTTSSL

Chain of Metabotropic glutamate receptor 4 (P31423 whole entry): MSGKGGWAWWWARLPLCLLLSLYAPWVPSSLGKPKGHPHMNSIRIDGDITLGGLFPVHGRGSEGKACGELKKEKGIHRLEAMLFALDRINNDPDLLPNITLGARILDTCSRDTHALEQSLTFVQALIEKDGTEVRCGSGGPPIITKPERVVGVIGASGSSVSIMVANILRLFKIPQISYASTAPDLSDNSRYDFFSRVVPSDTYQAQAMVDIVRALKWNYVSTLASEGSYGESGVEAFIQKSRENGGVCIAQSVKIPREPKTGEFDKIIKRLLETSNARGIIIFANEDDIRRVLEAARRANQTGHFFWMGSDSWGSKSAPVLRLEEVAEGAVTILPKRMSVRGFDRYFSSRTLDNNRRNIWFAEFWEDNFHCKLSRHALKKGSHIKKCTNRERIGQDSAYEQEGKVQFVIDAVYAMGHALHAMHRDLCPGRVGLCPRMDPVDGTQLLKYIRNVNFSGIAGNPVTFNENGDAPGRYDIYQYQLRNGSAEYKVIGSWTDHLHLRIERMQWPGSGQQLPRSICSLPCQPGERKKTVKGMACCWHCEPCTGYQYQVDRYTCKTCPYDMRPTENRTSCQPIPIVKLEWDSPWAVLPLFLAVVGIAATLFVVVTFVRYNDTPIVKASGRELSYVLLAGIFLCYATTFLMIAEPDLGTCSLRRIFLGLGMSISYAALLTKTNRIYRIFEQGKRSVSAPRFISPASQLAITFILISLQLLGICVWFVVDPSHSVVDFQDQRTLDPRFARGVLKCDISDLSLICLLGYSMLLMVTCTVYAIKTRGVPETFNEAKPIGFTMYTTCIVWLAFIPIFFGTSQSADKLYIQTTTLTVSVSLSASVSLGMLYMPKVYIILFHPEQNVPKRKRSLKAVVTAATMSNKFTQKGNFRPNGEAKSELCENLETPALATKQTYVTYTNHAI

| SMILES | Ki [1] [µM] | Ki [2] [µM] |
| --- | --- | --- |
| N[C@@H](COP(=O)(O)O)C(=O)O | 2.3 | – |
| N[C@@H](CCP(=O)(O)O)C(=O)O | 0.4 | – |
| NC(C(=O)O)c1ccc(C(=O)O)c(O)c1 (stereo not drawn) | – | > 10 |
| CC(N)(C(=O)O)c1ccc(P(=O)(O)O)cc1 (stereo not drawn) | > 10 | > 10 |
| C[C@@](N)(C(=O)O)c1ccc(C(=O)O)cc1 (racemic) | – | > 10 |
| N[C@@]1(C(=O)O)CC[C@H](C(=O)O)C1 [1S, 3R-ACPD] | > 10 | > 10 |
| N[C@@H](Cn1oc(=O)[nH]c1=O)C(=O)O [2-amino-3-(3,5-dioxo[1,2,4]oxadiazolidin-2-yl)propionic acid] | > 10 | > 10 |
| NC(C(=O)O)c1ccc(C(=O)O)cc1 (stereo not drawn) [4-(Amino-carboxy-methyl)-benzoic acid] | – | > 10 |
| N[C@H](C(=O)O)[C@H]1C[C@@H]1C(=O)O [(1S,2S)-2-((S)-Amino-carboxy-methyl)-cyclopropanecarboxylic acid] | 8.9 | 0.49 |
| N[C@@]1(C(=O)O)CC[C@H](CC(=O)O)C1 [(1S,3S)-HOMO-ACPD] | > 10 | > 10 |
| NC(C(=O)O)c1cc(=O)[nH]o1 (stereo not drawn) [Amino-(3-hydroxy-isoxazol-5-yl)-acetic acid(Ibotenic acid)] | > 10 | – |
| N[C@@H](CCC(=O)O)C(=O)O [L-Glutamic acid] | > 10 | – |
| C[C@](N)(C(=O)O)C1C[C@@H]1C(=O)O (stereo partly drawn) [MCCG-I] | – | > 10 |
| CC(N)(CCP(=O)(O)O)C(=O)O (stereo not drawn) [NSC_1795545] | > 10 | > 10 |
| CC(N)(C(=O)O)c1ccc(S(=O)(=O)O)cc1 (stereo not drawn) [NSC_3964410] | > 10 | > 10 |
| CC(N)(C(=O)O)c1ccc(-n2cnnn2)cc1 (stereo not drawn) [NSC_5311456] | – | > 10 |
